Where “and” joins values, the source holds several entries; their conditions need not be identical. Equal entries are not always repeated.
Tests used:
Assay type in all cases: functional
[1] = tested on: SR; assay: Growth inhibition of Homo sapiens (human) SR cells at 10 uM after 48 hr by SRB assay; conditions: read-out: GI
[2] = tested on: BT-549; assay: Growth inhibition of Homo sapiens (human) BT549 cells at 10 uM after 48 hr by SRB assay; conditions: BT-549, 48 h, read-out: GI
[3] = tested on: HOP-92; assay: Growth inhibition of Homo sapiens (human) HOP92 cells at 10 uM after 48 hr by SRB assay; conditions: HOP-92, 48 h, read-out: GI
[4] = tested on: NCI-H23; assay: Growth inhibition of Homo sapiens (human) NCI-H23 cells at 10 uM after 48 hr by SRB assay; conditions: NCI-H23, 48 h, read-out: GI
[5] = tested on: RPMI-8226; assay: Growth inhibition of Homo sapiens (human) RPMI8226 cells at 10 uM after 48 hr by SRB assay; conditions: RPMI-8226, 48 h, read-out: GI
[6] = tested on: MOLT-4; assay: Growth inhibition of Homo sapiens (human) MOLT4 cells at 10 uM after 48 hr by SRB assay; conditions: MOLT-4, 48 h, read-out: GI
[7] = tested on: HL-60(TB); assay: Growth inhibition of Homo sapiens (human) HL-60(TB) cells at 10 uM after 48 hr by SRB assay; conditions: HL-60, 48 h, read-out: GI
[8] = tested on: CCRF-CEM; assay: Growth inhibition of Homo sapiens (human) CCRF-CEM cells at 10 uM after 48 hr by SRB assay; conditions: read-out: GI
[9] = tested on: K562; assay: Growth inhibition of Homo sapiens (human) K562 cells at 10 uM after 48 hr by SRB assay; conditions: K562, 48 h, read-out: GI
[10] = tested on: PC-3; assay: Growth inhibition of Homo sapiens (human) PC3 cells at 10 uM after 48 hr by SRB assay; conditions: PC-3, 48 h, read-out: GI
[11] = tested on: SNB-75; assay: Cytotoxicity against Homo sapiens (human) SNB75 cells after 48 hr by SRB assay; conditions: SNB-75, 48 h
[12] = tested on: UACC-62; assay: Cytotoxicity against Homo sapiens (human) UACC62 cells after 48 hr by SRB assay; conditions: UACC-62, 48 h
[13] = tested on: SF-539; assay: Cytotoxicity against Homo sapiens (human) SF539 cells after 48 hr by SRB assay; conditions: SF-539, 48 h
[14] = tested on: SF-268; assay: Cytotoxicity against Homo sapiens (human) SF268 cells after 48 hr by SRB assay; conditions: SF-268, 48 h
[15] = tested on: HCC 2998; assay: Cytotoxicity against Homo sapiens (human) HCC2998 cells after 48 hr by SRB assay; conditions: HCC 2998, 48 h
[16] = tested on: HOP-92; assay: Cytotoxicity against Homo sapiens (human) HOP92 cells after 48 hr by SRB assay; conditions: HOP-92, 48 h
[17] = tested on: EKVX; assay: Cytotoxicity against Homo sapiens (human) EKVX cells after 48 hr by SRB assay
[18] = tested on: HOP-62; assay: Cytotoxicity against Homo sapiens (human) HOP62 cells after 48 hr by SRB assay; conditions: HOP-62, 48 h
[19] = tested on: SR; assay: Cytotoxicity against Homo sapiens (human) SR cells after 48 hr by SRB assay
[20] = tested on: RPMI-8226; assay: Cytotoxicity against Homo sapiens (human) RPMI8226 cells after 48 hr by SRB assay
[21] = tested on: CCRF-CEM; assay: Cytotoxicity against Homo sapiens (human) CCRF-CEM cells after 48 hr by SRB assay
[22] = tested on: HL-60(TB); assay: Cytotoxicity against Homo sapiens (human) HL-60(TB) cells after 48 hr by SRB assay; conditions: HL-60, 48 h
[23] = tested on: SNB-75; assay: Growth inhibition of Homo sapiens (human) SNB75 cells at 10 uM after 48 hr by SRB assay; conditions: SNB-75, 48 h, read-out: GI
[24] = tested on: MCF7; assay: Growth inhibition of Homo sapiens (human) MCF7 cells at 10 uM after 48 hr by SRB assay; conditions: MCF7, 48 h, read-out: GI
[25] = tested on: T47D; assay: Growth inhibition of Homo sapiens (human) T47D cells at 10 uM after 48 hr by SRB assay; conditions: read-out: GI
[26] = tested on: T47D; assay: Cytotoxicity against Homo sapiens (human) T47D cells after 48 hr by SRB assay
[27] = tested on: BT-549; assay: Cytotoxicity against Homo sapiens (human) BT549 cells after 48 hr by SRB assay; conditions: BT-549, 48 h
[28] = tested on: MDA-MB-231; assay: Cytotoxicity against Homo sapiens (human) MDA-MB-231 cells after 48 hr by SRB assay; conditions: MDA-MB-231, 48 h
[29] = tested on: UO-31; assay: Cytotoxicity against Homo sapiens (human) UO31 cells after 48 hr by SRB assay; conditions: UO-31, 48 h
[30] = tested on: OVCAR-4; assay: Cytotoxicity against Homo sapiens (human) OVCAR4 cells after 48 hr by SRB assay; conditions: OVCAR-4, 48 h
[31] = tested on: A498; assay: Cytotoxicity against Homo sapiens (human) A498 cells after 48 hr by SRB assay; conditions: A498, 48 h
[32] = tested on: OVCAR-3; assay: Cytotoxicity against Homo sapiens (human) OVCAR3 cells after 48 hr by SRB assay; conditions: OVCAR-3, 48 h
[33] = tested on: IGROV-1; assay: Cytotoxicity against Homo sapiens (human) IGROV1 cells after 48 hr by SRB assay; conditions: IGROV-1, 48 h

Structure (SMILES)	inhibition of growth at 10 µM [3] [%]	GI50 [11] [µM]	GI50 [12] [µM]	GI50 [13] [µM]	GI50 [14] [µM]	GI50 [15] [µM]	GI50 [16] [µM]	GI50 [17] [nM]	GI50 [18] [µM]	GI50 [19] [µM]	GI50 [21] [µM]	GI50 [22] [µM]	GI50 [26] [µM]	GI50 [27] [µM]	GI50 [28] [µM]	GI50 [29] [µM]	GI50 [30] [µM]	GI50 [31] [µM]	GI50 [32] [µM]	GI50 [33] [µM]	other results
COc1ccc(-c2cc(-c3cccn3C)c(C#N)c(=O)n2S(=O)(=O)c2ccccc2)cc1OC	25.8																				inhibition of growth at 10 µM [1]: 31.4%; inhibition of growth at 10 µM [2]: 21%
COc1ccc(-c2cc(-c3cccs3)n(S(=O)(=O)c3ccccc3)c(=O)c2C#N)cc1	21.3																				inhibition of growth at 10 µM [4]: 20%; inhibition of growth at 10 µM [5]: 22%; inhibition of growth at 10 µM [6]: 28.1%; inhibition of growth at 10 µM [7]: 55%; inhibition of growth at 10 µM [8]: 56.2%; inhibition of growth at 10 µM [9]: 27.7%
CC(=O)n1c(-c2ccc(Br)cc2)cc(-c2cccn2C)c(C#N)c1=O	24.6																				
COc1ccc(-c2cc(-c3cccn3C)c(C#N)c(=O)n2C(C)=O)cc1OC																					inhibition of growth at 10 µM [9]: 25.3%
COc1ccc(-c2cc(-c3cccs3)n(C(C)=O)c(=O)c2C#N)cc1	29.6																				inhibition of growth at 10 µM [1]: 30.5%
Cc1nnc2c(C#N)c(-c3cccn3C)cc(-c3ccc(Br)cc3)n12	30																				inhibition of growth at 10 µM [10]: 24%; inhibition of growth at 10 µM [5]: 43.2%; inhibition of growth at 10 µM [8]: 66%
COc1ccc(-c2cc(-c3cccn3C)c(C#N)c3nnc(C)n23)cc1OC	48	44.7	95.5	> 100	> 100	> 100	> 100	10	37.1	> 100	> 100	> 100	> 100	> 100	> 100	> 100	> 100	25.7	> 100	> 100	TGI [17]: 0.03 µM; GI50 [20]: 45.7 µM and 19 µM; inhibition of growth at 10 µM [10]: 23.8%; inhibition of growth at 10 µM [23]: 25.8%; inhibition of growth at 10 µM [8]: 39.2%; inhibition of growth at 10 µM [9]: 41.5%; inhibition of growth at 10 µM [24]: 29%; inhibition of growth at 10 µM [25]: 34.3%
COc1ccc(-c2cc(-c3cccs3)n3c(C)nnc3c2C#N)cc1	23.5																				
Cn1cccc1-c1cc(-c2ccc(Br)cc2)[nH]c(=O)c1C#N		25.7	48.9	89.1	> 100	> 100	> 100	27500	34.7	> 100	47.3	> 100	> 100	85.1	83.2	69.2	> 100	54.9	85.1	77.6	GI50 ([20]; Homo sapiens, RPMI-8226, 48 h): 57.5 µM
COc1ccc(-c2cc(-c3cccn3C)c(C#N)c(=O)[nH]2)cc1OC		23.9	66.1	67.6	> 100	89.1	> 100	50	30.9	0.48	5.01	> 100	34.7	> 100	> 100	85.1	> 100	56.2	> 100	91.2	TGI [17]: 9.77 µM; GI50 ([20]; Homo sapiens, RPMI-8226, 48 h): 22.9 µM
COc1ccc(-c2cc(-c3cccs3)[nH]c(=O)c2C#N)cc1		39.8	> 100	> 100	> 100	> 100	> 100	> 100000	> 100	60.2	23.4	45.7	> 100	> 100	> 100	> 100	69.2	> 100	> 100	> 100	GI50 ([20]; Homo sapiens, RPMI-8226, 48 h): 22.4 µM

Reference: ChEMBL document CHEMBL3046164, “A facile synthesis of some 3-cyano-1,4,6-trisubstituted-2(1H)-pyridinones and their biological evaluation as anticancer agents” (2011)
